Experimental data taken from ChEMBL document CHEMBL6153094, “Rationally designed highly amphipathic antimicrobial peptides demonstrating superior bacterial selectivity relative to the corresponding α-helix peptide” (Eur J Med Chem, 2025).
Active and inactive are the calls of the source. The calls are words filed in the database; no cut-off is given here.

Key:
Klebsiella pneumoniae [1] = test: Antibacterial activity against Klebsiella pneumoniae ATCC 700603 infected in male Balb/c mouse model of pneumonia assessed as increase in alveoli expansion in lung at 2.5 mg/kg, ip administered at 4 and 12 hrs post-infected and measured after 24 hrs by H and E staining based analysis; type: functional, organism-based; conditions: time 20.0 hrs
Staphylococcus aureus [2] = test: Antibacterial activity against Staphylococcus aureus ATCC 25923 assessed as fold change in MIC incubated for 18 hrs in presence of 2.5% serum by broth microdilution method; type: functional
Staphylococcus aureus [3] = test: Antibiofilm activity in Staphylococcus aureus ATCC 25923 assessed as inhibition of biofilm formation at 2 times of MIC incubated for 24 hrs by crystal violet staining based analysis relative to control; type: functional
Staphylococcus aureus [4] = test: Antibacterial activity against Staphylococcus aureus ATCC 25923 assessed as fold change in MIC incubated for 18 hrs in presence of KCl by Mueller-Hinton broth based assay; type: functional
Klebsiella pneumoniae [5] = test: Antibacterial activity against Klebsiella pneumoniae ATCC 700603 infected in male Balb/c mouse model of pneumonia assessed as decrease in decrease in TNF-alpha level in lung at 2.5 to 10 mg/kg, ip administered at 4 and 12 hrs post-infected and measured after 24 hrs by ELISA; type: functional, organism-based; conditions: dose 2.5-10 mg/kg, time 20.0 hrs
Staphylococcus aureus [6] = test: Antibacterial activity against Staphylococcus aureus ATCC 25923 incubated for 18 hrs in presence of MgCl2 by Mueller-Hinton broth based assay; type: functional, organism-based
Staphylococcus aureus [7] = test: Antimicrobial activity against methicillin-drug resistant Staphylococcus aureus clinical isolate 54 assessed as concentration required to eliminate 90% bacteria incubated for 18 hrs by broth-microdilution method; type: functional
Pseudomonas aeruginosa [8] = test: Antibacterial activity against Pseudomonas aeruginosa ATCC 27853 incubated for 18 hrs in presence of MgCl2 by Mueller-Hinton broth based assay; type: functional, organism-based
DNA = test: Binding affinity to Pseudomonas aeruginosa ATCC 27853 DNA at 8 times of MIC measured after 30 mins by agarose gel electrophoresis; type: nucleic-acid assay
Staphylococcus aureus [9] = test: Induction of morphological changes in Staphylococcus aureus ATCC 25923 assessed as content leakage at 2 times of MIC incubated for 30 to 120 mins by SEM analysis; type: functional, organism-based; conditions: time 30-120 min
Pseudomonas aeruginosa [10] = test: Induction of morphological changes in Pseudomonas aeruginosa ATCC 27853 assessed as content leakage at 2 times of MIC incubated for 30 to 120 mins by SEM analysis; type: functional, organism-based; conditions: time 30-120 min
Staphylococcus aureus [11] = test: Resistance fold, ratio of MIC for Staphylococcus aureus ATCC 25923 measured after 20 passages in presence of gentamicin to MIC for Staphylococcus aureus ATCC 25923 measured immediately in presence of gentamicin; type: functional
Enterococcus faecalis = test: Antimicrobial activity against Enterococcus faecalis ATCC 29212 assessed as inhibition of visible bacterial growth incubated for 18 hrs by broth-dilution method; type: functional
Pseudomonas aeruginosa [12] = test: Antibacterial activity against Pseudomonas aeruginosa ATCC 27853 incubated for 18 hrs in presence of FeCl3 by Mueller-Hinton broth based assay; type: functional, organism-based
Pseudomonas aeruginosa [13] = test: Antibacterial activity against Pseudomonas aeruginosa ATCC 27853 assessed as fold change in MIC incubated for 18 hrs in presence of 5% serum by broth microdilution method; type: functional
[14] = Toxicity in male Balb/c mouse assessed as mortality at 100.8 mg/kg, ip measured after 7 days relative to control; type: organism-based; conditions: in vivo, time 7 day
Escherichia coli [15] = test: Antimicrobial activity against Escherichia coli ATCC 25922 assessed as inhibition of visible bacterial growth incubated for 18 hrs by broth microdilution method; type: functional
Pseudomonas aeruginosa [16] = test: Antibacterial activity against Pseudomonas aeruginosa ATCC 27853 assessed as fold change in MIC incubated for 18 hrs in presence of NaCl by Mueller-Hinton broth based assay; type: functional
[17] = Hemolytic activity in mouse red blood cells assessed as hemolysis at 256 uM incubated for 1 hrs by absorbance based assay relative to control; type: toxicity, cell-based, Erythrocyte; conditions: read-out: Activity
Staphylococcus aureus [18] = test: Antimicrobial activity against methicillin-drug resistant Staphylococcus aureus clinical isolate 48 assessed as concentration required to eliminate 90% bacteria incubated for 18 hrs by broth-microdilution method; type: functional
Escherichia coli [19] = test: Antimicrobial activity against multi-drug resistant Escherichia coli clinical isolate 804 assessed as concentration required to eliminate 90% bacteria incubated for 18 hrs by broth-microdilution method; type: functional
Staphylococcus aureus [20] = test: Bactericidal activity against Staphylococcus aureus ATCC 25923 at 2 times of MIC incubated for 18 hrs in presence of 20 microg/ml of trypsin by absorbance based assay; type: functional, organism-based
Klebsiella pneumoniae [21] = test: Antibacterial activity against Klebsiella pneumoniae ATCC 700603 infected in male Balb/c mouse model of pneumonia assessed as decrease in decrease in IL-6 level in lung at 2.5 to 10 mg/kg, ip administered at 4 and 12 hrs post-infected and measured after 24 hrs by ELISA; type: functional, organism-based; conditions: dose 2.5-10 mg/kg, time 20.0 hrs
Pseudomonas aeruginosa [22] = test: Antibiofilm activity in Pseudomonas aeruginosa ATCC 27853 assessed as inhibition of biofilm formation at 1/2 times of MIC incubated for 24 hrs by crystal violet staining based analysis; type: functional, organism-based
Staphylococcus aureus [23] = test: Bactericidal activity against Staphylococcus aureus ATCC 25923 assessed as bacterial eradication at 2 times of MIC measured after 90 mins by time-kill kinetics assay; type: functional, organism-based
Staphylococcus aureus [24] = test: Antimicrobial activity against methicillin-drug resistant Staphylococcus aureus clinical isolate 74 assessed as concentration required to eliminate 90% bacteria incubated for 18 hrs by broth-microdilution method; type: functional
Cell membrane = test: Disruption of outer membrane integrity in Pseudomonas aeruginosa ATCC 27853 assessed as increase in fluorescence intensity at 2 times of MIC measured for 12 mins by NPN uptake assay; type: subcellular
Staphylococcus aureus [25] = test: Antimicrobial activity against methicillin-drug resistant Staphylococcus aureus clinical isolate 2 assessed as concentration required to eliminate 90% bacteria incubated for 18 hrs by broth-microdilution method; type: functional
Klebsiella pneumoniae [26] = test: Antibacterial activity against Klebsiella pneumoniae ATCC 700603 infected in male Balb/c mouse model of pneumonia assessed as decrease in bacterial load in lung at 2.5 to 10 mg/kg, ip administered at 4 and 12 hrs post-infected and measured after 24 hrs by agar plate method; type: functional, organism-based; conditions: dose 2.5-10 mg/kg, time 20.0 hrs
Pseudomonas aeruginosa [27] = test: Bactericidal activity against Pseudomonas aeruginosa ATCC 27853 assessed as bacterial killing at 1 to 4 times of MIC by time-kill kinetics assay; type: functional, organism-based; conditions: time <= 360.0 min
Staphylococcus aureus [28] = test: Induction of morphological changes in Staphylococcus aureus ATCC 25923 assessed as cell adhesion at 2 times of MIC incubated for 30 to 120 mins by SEM analysis; type: functional, organism-based; conditions: time 30-120 min
Staphylococcus aureus [29] = test: Antibacterial activity against Staphylococcus aureus ATCC 25923 assessed as inhibition of bacterial growth at 2 times of MIC incubated for 18 hrs in presence of <2 microg/ml of trypsin by absorbance based assay; type: functional, organism-based
Pseudomonas aeruginosa [30] = test: Antimicrobial activity against multi-drug resistant Pseudomonas aeruginosa clinical isolate 86 assessed as concentration required to eliminate 90% bacteria incubated for 18 hrs by broth-microdilution method; type: functional
Staphylococcus aureus [31] = test: Bactericidal activity against Staphylococcus aureus ATCC 25923 at 2 times of MIC incubated for 18 hrs in presence of 20 microg/ml of chymotrypsin by absorbance based assay; type: functional, organism-based
Klebsiella pneumoniae [32] = test: Antimicrobial activity against Klebsiella pneumoniae ATCC 700603 assessed as inhibition of visible bacterial growth incubated for 18 hrs by broth microdilution method; type: functional

H-RRWFRRWRRWFR-NH2
Activity (Klebsiella pneumoniae [1]): Active
fold change (FC) (Staphylococcus aureus [2]): 32
inhibition (INH) (Staphylococcus aureus [3]): ~75%
fold change (FC) (Staphylococcus aureus [4]): 2
Activity (Klebsiella pneumoniae [5]): Active
Activity (Staphylococcus aureus [6]): Active
EC90 (Staphylococcus aureus [7]): 3420 nM
Activity (Pseudomonas aeruginosa [8]): Active
Activity (DNA): Active
Activity (Staphylococcus aureus [9]): Active
Activity (Pseudomonas aeruginosa [10]): Active
fold change (FC) (Staphylococcus aureus [11]): <=2
MIC (Enterococcus faecalis): 8 µM
Activity (Pseudomonas aeruginosa [12]): Active
fold change (FC) (Pseudomonas aeruginosa [13]): 64
mortality at 168 h [14]: 75%
MIC (Escherichia coli [15]): 4 µM
fold change (FC) (Pseudomonas aeruginosa [16]): 2
hemolysis at 1 h, 256 µM [17]: < 10%
EC90 (Staphylococcus aureus [18]): 2780 nM
EC90 (Escherichia coli [19]): 5420 nM
Activity (Staphylococcus aureus [20]): inactive
Activity (Klebsiella pneumoniae [21]): inactive
Activity (Pseudomonas aeruginosa [22]): inactive
Activity (Staphylococcus aureus [23]): Active
EC90 (Staphylococcus aureus [24]): 2430 nM
Activity (Cell membrane): Active
EC90 (Staphylococcus aureus [25]): 2860 nM
Activity (Klebsiella pneumoniae [26]): Active
Activity (Pseudomonas aeruginosa [27]): Time-dependent-effect
Activity (Staphylococcus aureus [28]): Active
Activity (Staphylococcus aureus [29]): Active
EC90 (Pseudomonas aeruginosa [30]): 574 nM
Activity (Staphylococcus aureus [31]): inactive
MIC (Klebsiella pneumoniae [32]): 4 µM
